Test results as given in ChEMBL document CHEMBL1140776, “Parasiticidal 2-alkoxy- and 2-aryloxyiminoalkyl trifluoromethanesulfonanilides” (2008).

Experiments:
Format in all cases: functional
Ctenocephalides felis [1] = assay: Parasiticidal activity against Ctenocephalides felis assessed as mortality after 24 hrs by cat flea assay; set-up: concentration or dose not given beside the values
Ctenocephalides felis [2] = assay: Parasiticidal activity against Ctenocephalides felis by cat flea assay
Rhipicephalus sanguineus [3] = assay: Parasiticidal activity against Rhipicephalus sanguineus assessed per tick by brown dog tick assay
Haemonchus contortus = assay: Parasiticidal activity against Haemonchus contortus by larval assay
Rhipicephalus sanguineus [4] = assay: Parasiticidal activity against Rhipicephalus sanguineus assessed as mortality after 24 hrs by brown dog tick assay; set-up: concentration or dose not given beside the values

SMILES | Activity (Ctenocephalides felis [1]) [%] | LC50 (Ctenocephalides felis [2]) [ng/cm2] | LD50 (Rhipicephalus sanguineus [3]) [µg] | LD99 (Haemonchus contortus) [µM] | Activity (Rhipicephalus sanguineus [4]) [%]
C#CCO/N=C(\CC)c1cc(Cl)ccc1NS(=O)(=O)C(F)(F)F | 100 | 27 | 0.86 | 20 | 100
C/C(=N\OC1CCCC1)c1cc(Cl)ccc1NS(=O)(=O)C(F)(F)F | 100 | – | – | – | 100
C/C(=N\Oc1ccc(Br)cc1)c1cc(Cl)ccc1NS(=O)(=O)C(F)(F)F | 91 | – | – | 0.87 | –
CC/C(=N\Oc1ccc(Cl)cc1)c1ccc(C(F)(F)F)cc1NS(=O)(=O)C(F)(F)F | 100 | – | – | – | 17
CC/C(=N\OCc1ccccc1C(F)(F)F)c1cc(Cl)ccc1NS(=O)(=O)C(F)(F)F | 96 | 36 | – | 2.7 | 31
CC/C(=N\OCC(F)(F)F)c1cc(Cl)ccc1NS(=O)(=O)C(F)(F)F | 100 | – | – | – | 80
CCC/C(=N\OCC1CCCCC1)c1cc(Cl)ccc1NS(=O)(=O)C(F)(F)F | 70 | – | – | 11 | –
CC/C(=N\OCCOC)c1cc(Cl)ccc1NS(=O)(=O)C(F)(F)F | 100 | – | – | – | 95
CCO/N=C(\C)c1cccc(OC)c1NS(=O)(=O)C(F)(F)F | 45 | – | – | >15 | –
CC/C(=N\Oc1ccc(Br)cc1)c1cc(Cl)ccc1NS(=O)(=O)C(F)(F)F | 78 | – | – | 3.7 | –
CCC/C(=N\OC1CCCCC1)c1cc(Cl)ccc1NS(=O)(=O)C(F)(F)F | 43 | – | – | – | –
CCC/C(=N\OCc1ccc(Cl)cc1Cl)c1cc(Cl)ccc1NS(=O)(=O)C(F)(F)F | 88 | – | – | 3.6 | –
C/C(=N\OCc1ccc(Cl)cc1)c1cc(Cl)ccc1NS(=O)(=O)C(F)(F)F | 100 | – | – | 3 | 72
CC/C(=N\Oc1ccc(Cl)c(Cl)c1)c1cc(Cl)ccc1NS(=O)(=O)C(F)(F)F | 99 | 6 | – | 1.9 | –
CC/C(=N\OCc1ccc(Cl)cc1)c1ccc(C(F)(F)F)cc1NS(=O)(=O)C(F)(F)F | 100 | – | – | – | 25
CCO/N=C(\C)c1ccc(F)cc1NS(=O)(=O)C(F)(F)F | 100 | – | – | >15 | 8
CC/C(=N\OCc1ccc(Br)cc1)c1cc(Cl)ccc1NS(=O)(=O)C(F)(F)F | 78 | – | – | 1.8 | 58
COCCO/N=C(\C)c1cc(Cl)ccc1NS(=O)(=O)C(F)(F)F | 100 | 12 | 0.71 | – | 100
CC/C(=N\OCC1CCCC1)c1cc(Cl)ccc1NS(=O)(=O)C(F)(F)F | 97 | – | – | – | 90
CC/C(=N\OC1CCCCC1)c1cc(Cl)ccc1NS(=O)(=O)C(F)(F)F | 100 | – | 5.7 | – | 100
O=S(=O)(Nc1ccc(Cl)cc1/C=N/OCc1ccc(Cl)c(Cl)c1)C(F)(F)F | 42 | – | – | 1.4 | –
C/C(=N\OC1CCCCC1)c1cc(Cl)ccc1NS(=O)(=O)C(F)(F)F | 100 | – | – | – | 100
C/C(=N\Oc1ccc(Cl)cc1)c1cc(Cl)ccc1NS(=O)(=O)C(F)(F)F | 90 | – | – | 1 | –
CCC/C(=N\Oc1ccc(F)cc1)c1cc(Cl)ccc1NS(=O)(=O)C(F)(F)F | 36 | – | – | – | –
C/C(=N\Oc1cccc(Cl)c1)c1cc(Cl)ccc1NS(=O)(=O)C(F)(F)F | 100 | – | – | 3.8 | 47
CC/C(=N\OC(C)C)c1cc(Cl)ccc1NS(=O)(=O)C(F)(F)F | 100 | – | – | – | 100

SMILES | Activity (Ctenocephalides felis [1]) [%] | LC50 (Ctenocephalides felis [2]) [ng/cm2] | LD50 (Rhipicephalus sanguineus [3]) [µg] | LD99 (Haemonchus contortus) [µM] | Activity (Rhipicephalus sanguineus [4]) [%]
CC/C(=N\Oc1cccc(Cl)c1)c1cc(Cl)ccc1NS(=O)(=O)C(F)(F)F | 100 | – | – | 3.6 | –
C/C(=N\Oc1cccc(C(F)(F)F)c1)c1cc(Cl)ccc1NS(=O)(=O)C(F)(F)F | 96 | – | – | 0.83 | –
CC/C(=N\OCc1ccc(Cl)c(Cl)c1)c1cc(Cl)ccc1NS(=O)(=O)C(F)(F)F | 100 | – | – | 1.3 | –
CO/N=C(\C)c1cc(Cl)ccc1NS(=O)(=O)C(F)(F)F | 100 | – | – | – | 93
CC/C(=N\Oc1cccc(C(F)(F)F)c1)c1cc(Cl)ccc1NS(=O)(=O)C(F)(F)F | 71 | – | – | 2 | –
O=S(=O)(Nc1ccc(Cl)cc1/C(=N/OC1CCCCC1)c1ccccc1)C(F)(F)F | 12 | – | – | – | 45
CC/C(=N\OCc1cccc(Cl)c1Cl)c1cc(Cl)ccc1NS(=O)(=O)C(F)(F)F | 63 | – | – | 0.63 | –
CCO/N=C(\C)c1cc(Cl)ccc1NS(=O)(=O)C(F)(F)F | 100 | – | – | >15 | 85
C/C(=N\OCC1CC1)c1cc(Cl)ccc1NS(=O)(=O)C(F)(F)F | 100 | 5 | 1 | – | 100
C/C(=N\Oc1ccc(Cl)c(Cl)c1)c1cc(Cl)ccc1NS(=O)(=O)C(F)(F)F | 71 | – | – | 1.6 | –
CC1(C)C(C=C(Cl)Cl)C1C(=O)OCc1cccc(Oc2ccccc2)c1 (stereo not given) | – | – | 0.14 | – | –
CC/C(=N\Oc1ccc(Cl)cc1)c1cc(Cl)ccc1NS(=O)(=O)C(F)(F)F | 100 | 51 | – | 1 | 95
C/C(=N\OCC1CCCCC1)c1cc(Cl)ccc1NS(=O)(=O)C(F)(F)F | 96 | – | – | – | 100
CC/C(=N\OC(C)(C)C)c1cc(Cl)ccc1NS(=O)(=O)C(F)(F)F | 100 | 43 | 1.5 | – | 90
O=S(=O)(Nc1ccc(Cl)cc1/C(=N/OCC1CCCCC1)c1ccccc1)C(F)(F)F | 8 | – | – | – | 52
C/C(=N\OC1CCCCC1)c1ccc(C(F)(F)F)cc1NS(=O)(=O)C(F)(F)F | 4 | – | – | – | –
CC(C)/C(=N\Oc1ccc(F)cc1)c1cc(Cl)ccc1NS(=O)(=O)C(F)(F)F | 100 | – | – | – | 42
C/C(=N\OC(C)C)c1cc(Cl)ccc1NS(=O)(=O)C(F)(F)F | 100 | – | – | – | 95
c1ccc([C@H]2CN3CCSC3=N2)cc1 [LEVAMISOLE] | – | – | – | 0.71 | –
C/C(=N\OCc1ccc(Cl)cc1)c1ccc(C(F)(F)F)cc1NS(=O)(=O)C(F)(F)F | 100 | – | – | – | 27
O=S(=O)(Nc1ccc(Cl)cc1/C(=N/Oc1ccc(F)cc1)c1ccccc1)C(F)(F)F | 21 | – | – | – | –
CC/C(=N\OCC1CCCCC1)c1ccc(C(F)(F)F)cc1NS(=O)(=O)C(F)(F)F | 97 | – | – | – | 17
N#Cc1nn(-c2c(Cl)cc(C(F)(F)F)cc2Cl)c(N)c1[S+]([O-])C(F)(F)F (stereo not given) [FIPRONIL] | – | 0.1 | – | – | –
CCO/N=C(\C)c1ccccc1NS(=O)(=O)C(F)(F)F | 92 | – | – | >16 | 90
C#CCO/N=C(\C)c1cc(Cl)ccc1NS(=O)(=O)C(F)(F)F | 100 | 11 | 0.99 | – | 100
C=CCO/N=C(\C)c1cc(Cl)ccc1NS(=O)(=O)C(F)(F)F | 100 | – | – | – | 100
